What was measured:
[1] = test system: SORVU (shattercane); assay: Pre-emergence herbicidal activity, warm season; assay type: in vivo, Sorghum vulgare; details: for Pre-emergence activity (GR80) SORVU: GR80 = lowest tested rate (300, 100, 30, 10 g/ha) with 80% or greater inhibition, approx. 14 days after treating, 30/21° C.
Summary of the method: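 Activity is expressed as the rate giving 80% inhibition, with 300, 100, 30 and 10 g/ha typically tested. An asterisk marks activity short of 80% at the top rate. Warm-season grasses were held at 30/21 °C; cool-season blackgrass and wild buckwheat at 18/13 °C; scoring at about 14 days.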

[2] = test system: SASKR (russian thistle); assay: Pre-emergence herbicidal activity, cool season; assay type: in vivo, Salsola kali; details: lowest tested rate with 80% or greater inhibition; rates 300, 100, 30, 10 g/ha; about 14 days
Summary of the method: (§1)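 GR80 values derive from percent inhibition relative to untreated plants, read roughly 14 days after sowing and pre-emergence soil-surface treatment (compound in 50:50 acetone/water; rates typically 10, 30, 100, 300 g/ha). Warm-season weeds grew at 30/21° C day/night, cool-season ones at 18/13° C; an asterisk marks activity without reaching 80% at the highest rate.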

[3] = test system: STEME (common chickweed); assay: Pre-emergence herbicidal activity, cool season; assay type: in vivo, Stellaria media; details: lowest tested rate with 80% or greater inhibition; rates 300, 100, 30, 10 g/ha; about 14 days
Summary of the method: as §1

[4] = test system: DATST (jimsonweed); assay: Pre-plant incorporated (PPI) herbicidal activity, warm season; assay type: in vivo, Datura stramonium; details: for PPI activity (GR80) DATST: pre-plant incorporated, GR80 = lowest tested rate with 80% or greater inhibition, approx. 14 days after treating, 30/21° C.
Experimental: (§2) In another set of tests, the pre-plant incorporated (PPI) activity of compounds of this invention was evaluated on the same species as for the pre-emergence tests described above. In the PPI tests the following procedure, designed to simulate PPI application, was used.
(§3) A pre-prepared topsoil mixture (described above) was placed in a pot and compacted to a depth of 1.0 to 1.25 cm from the top of the pot. Seeds of each of several monocotyledonous and dicotyledonous annual plant species were placed on top of the soil. A sufficient quantity of soil to cover the seeds and level fill the pot was weighed into an open container. A known amount of the test compound was dissolved or suspended in an organic solvent and applied by spraying to this cover soil. The cover soil was thoroughly mixed to distribute the test compound throughout the cover soil, and was then applied as a cover layer over the seeds. Untreated soil was used as a cover layer for control pots. After treatment the plants were placed in a greenhouse where they received 0.64 cm of overhead irrigation. All subsequent watering consisted of a light overhead mist and/or subirrigation as needed for germination and growth. Tables 9 and 10 below relate to warm season plant species which were placed after pre-emergence treatment in a greenhouse with a 30/21° C. day/night temperature regime. Tables 11 and 12 below relates to cool season plant species placed after pre-emergence treatment in a greenhouse or growth chamber with an 18/13° C. day/night temperature regime. Only the compounds of Examples 1, 6, 8, 11, 13 and 15-20 were included in PPI tests.
(§4) Approximately 14 days after planting and treating, the plants were observed and herbicidal efficacy recorded as percent inhibition by comparison with untreated plants.

[5] = test system: ECHCG (barnyardgrass); assay: as above; assay type: in vivo, Echinochloa crus-galli; details: for PPI activity GR80, ECHCG: pre-plant incorporated, lowest tested rate with 80% or greater inhibition, about 14 days
Experimental: as §2, §3, §4

[6] = test system: PANMI (wild proso millet); assay: as above; assay type: in vivo, Panicum miliaceum; details: for PPI activity GR80, PANMI: pre-plant incorporated, lowest tested rate with 80% or greater inhibition, about 14 days
Experimental: as §2, §3, §4

[7] = test system: DIGSA (large crabgrass); assay: as above; assay type: in vivo, Digitaria sanguinalis; details: for PPI activity GR80, DIGSA: pre-plant incorporated, lowest tested rate with 80% or greater inhibition, about 14 days
Experimental: as §2, §3, §4

[8] = test system: VERPE (creeping speedwell); assay: Pre-plant incorporated (PPI) herbicidal activity, cool season; assay type: in vivo, Veronica persicaria; details: for PPI activity GR80, VERPE: pre-plant incorporated, lowest tested rate with 80% or greater inhibition, about 14 days; for Percent inhibition VERPE: weed, PPI application
Experimental: as §2, §3, §4

[9] = test system: AGRRE (quackgrass (seedling)); assay: as above; assay type: in vivo, Elymus repens; details: for PPI activity GR80, AGRRE: pre-plant incorporated, lowest tested rate with 80% or greater inhibition, about 14 days; for Percent inhibition AGRRE: weed, PPI application
Experimental: as §2, §3, §4

CCN(CC)C(=O)n1cnc(S(=O)(=O)C(F)(F)SCC(=O)OC)n1 [Example 11]
Pre-emergence activity (GR80) SORVU [1]: * (activity observed, at least at highest rate, but <80% inhibition) | Pre-emergence activity GR80, SASKR [2]: 300 g/ha | Pre-emergence activity GR80, STEME [3]: [empty] | Percent inhibition DATST ([4]; PPI application, 10 g/ha): 0% | Percent inhibition DATST ([4]; PPI application, 30 g/ha): 0% | Percent inhibition DATST ([4]; PPI application, 100 g/ha): 20% | Percent inhibition DATST ([4]; PPI application, 300 g/ha): 20% | Percent inhibition DATST ([4]; PPI application, 900 g/ha): 80% | PPI activity (GR80) DATST [4]: 100 g/ha | Percent inhibition ECHCG ([5]; PPI application, 10 g/ha): 0% | Percent inhibition ECHCG ([5]; PPI application, 30 g/ha): 0% | Percent inhibition ECHCG ([5]; PPI application, 100 g/ha): 40% | Percent inhibition ECHCG ([5]; PPI application, 300 g/ha): 70% | Percent inhibition ECHCG ([5]; PPI application, 900 g/ha): 99% | PPI activity GR80, ECHCG [5]: * (activity observed, at least at highest rate, but <80% inhibition) | Percent inhibition PANMI ([6]; PPI application, 30 g/ha): 0% | Percent inhibition PANMI ([6]; PPI application, 100 g/ha): 20% | Percent inhibition PANMI ([6]; PPI application, 300 g/ha): 80% | Percent inhibition PANMI ([6]; PPI application, 900 g/ha): 100% | PPI activity GR80, PANMI [6]: * (activity observed, at least at highest rate, but <80% inhibition) | Percent inhibition DIGSA ([7]; PPI application, 10 g/ha): 0% | Percent inhibition DIGSA ([7]; PPI application, 30 g/ha): 0% | Percent inhibition DIGSA ([7]; PPI application, 100 g/ha): 70% | Percent inhibition DIGSA ([7]; PPI application, 300 g/ha): 90% | Percent inhibition DIGSA ([7]; PPI application, 900 g/ha): 100% | PPI activity GR80, DIGSA [7]: 300 g/ha | PPI activity GR80, VERPE [8]: [empty] | Percent inhibition VERPE ([8]; 10 g/ha): 90% | Percent inhibition VERPE ([8]; 30 g/ha): 90% | Percent inhibition VERPE ([8]; 100 g/ha): 100% | Percent inhibition VERPE ([8]; 300 g/ha): 100% | Percent inhibition VERPE ([8]; 900 g/ha): 100% | PPI activity GR80, AGRRE [9]: * (activity observed, at least at highest rate, but <80% inhibition) | Percent inhibition AGRRE ([9]; 10 g/ha): 0% | Percent inhibition AGRRE ([9]; 30 g/ha): 0% | Percent inhibition AGRRE ([9]; 100 g/ha): 0% | Percent inhibition AGRRE ([9]; 300 g/ha): 0% | Percent inhibition AGRRE ([9]; 900 g/ha): 0%

CCN(CC)C(=O)n1cnc(S(=O)(=O)C(F)F)n1 [Example 15, 1-(N,N-diethylcarbamoyl)-3-(difluoromethylsulfonyl)-1,2,4-triazole]
Pre-emergence activity (GR80) SORVU [1]: * (activity observed, at least at highest rate, but <80% inhibition) | inhibition at 10 g/ha ([1]; Sorghum bicolor, pre-emergence application, 10 g/ha, read-out: Percent inhibition, weed SORVU): 0% | inhibition at 30 g/ha ([1]; Sorghum bicolor, pre-emergence application, 30 g/ha, read-out: Percent inhibition, weed SORVU): 0% | inhibition at 100 g/ha ([1]; Sorghum bicolor, pre-emergence application, 100 g/ha, read-out: Percent inhibition, weed SORVU): 20% | inhibition at 300 g/ha ([1]; Sorghum bicolor, pre-emergence application, 300 g/ha, read-out: Percent inhibition, weed SORVU): 60% | inhibition at 900 g/ha ([1]; Sorghum bicolor, pre-emergence application, 900 g/ha, read-out: Percent inhibition, weed SORVU): 95% | inhibition at 10 g/ha ([4]; Datura stramonium, PPI application, 10 g/ha, read-out: Percent inhibition DATST): 0% | inhibition at 30 g/ha ([4]; Datura stramonium, PPI application, 30 g/ha, read-out: Percent inhibition DATST): 0% | inhibition at 100 g/ha ([4]; Datura stramonium, PPI application, 100 g/ha, read-out: Percent inhibition DATST): 0% | inhibition at 300 g/ha ([4]; Datura stramonium, PPI application, 300 g/ha, read-out: Percent inhibition DATST): 65% | inhibition at 900 g/ha ([4]; Datura stramonium, PPI application, 900 g/ha, read-out: Percent inhibition DATST): 90% | PPI activity (GR80) DATST [4]: 300 g/ha | inhibition at 10 g/ha ([5]; Echinochloa crus-galli, PPI application, 10 g/ha, read-out: Percent inhibition ECHCG): 10% | inhibition at 30 g/ha ([5]; Echinochloa crus-galli, PPI application, 30 g/ha, read-out: Percent inhibition ECHCG): 50% | inhibition at 100 g/ha ([5]; Echinochloa crus-galli, PPI application, 100 g/ha, read-out: Percent inhibition ECHCG): 90% | inhibition at 300 g/ha ([5]; Echinochloa crus-galli, PPI application, 300 g/ha, read-out: Percent inhibition ECHCG): 100% | inhibition at 900 g/ha ([5]; Echinochloa crus-galli, PPI application, 900 g/ha, read-out: Percent inhibition ECHCG): 90% | PPI activity GR80, ECHCG [5]: 100 g/ha | inhibition at 10 g/ha ([6]; Panicum miliaceum, PPI application, 10 g/ha, read-out: Percent inhibition PANMI): 10% | inhibition at 30 g/ha ([6]; Panicum miliaceum, PPI application, 30 g/ha, read-out: Percent inhibition PANMI): 70% | inhibition at 100 g/ha ([6]; Panicum miliaceum, PPI application, 100 g/ha, read-out: Percent inhibition PANMI): 99% | inhibition at 300 g/ha ([6]; Panicum miliaceum, PPI application, 300 g/ha, read-out: Percent inhibition PANMI): 100% | inhibition at 900 g/ha ([6]; Panicum miliaceum, PPI application, 900 g/ha, read-out: Percent inhibition PANMI): 100% | PPI activity GR80, PANMI [6]: 30 g/ha | inhibition at 10 g/ha ([7]; Digitaria sanguinalis, PPI application, 10 g/ha, read-out: Percent inhibition DIGSA): 90% | inhibition at 30 g/ha ([7]; Digitaria sanguinalis, PPI application, 30 g/ha, read-out: Percent inhibition DIGSA): 70% | inhibition at 100 g/ha ([7]; Digitaria sanguinalis, PPI application, 100 g/ha, read-out: Percent inhibition DIGSA): 100% | inhibition at 300 g/ha ([7]; Digitaria sanguinalis, PPI application, 300 g/ha, read-out: Percent inhibition DIGSA): 100% | inhibition at 900 g/ha ([7]; Digitaria sanguinalis, PPI application, 900 g/ha, read-out: Percent inhibition DIGSA): 100% | PPI activity GR80, DIGSA [7]: 100 g/ha | PPI activity GR80, VERPE [8]: 300 g/ha | PPI activity GR80, AGRRE [9]: 300 g/ha

From patent US6461997B1, “Triazole sulfones having herbicidal activity” (Monsanto Technology LLC, priority 1999, dated 2002)
